“And” between values parts separate entries of the source, which are not always exact repeats. Equal entries are not always repeated. Where two headings read alike, the source gives them in different places.
Legend:
IPOHE = test: Example I: postemergence foliar-applied weed control, greenhouse; assay type: in vivo, Ipomoea hederacea Jacq. (ivyleaf morningglory); conditions: for Visual Weed Control Obs: 20 DAA; for Visual Weed Control (%) - 21 DAA IPOHE Obs: foliar
Source text: Seeds or nutlets of the desired test plant species were planted in a soil matrix prepared by mixing a loam or sandy loam soil (e.g., 28.6 percent silt, 18.8 percent clay, and 52.6 percent sand, with a pH of about 5.8 and an organic matter content of about 1.8 percent) and calcareous grit in an 80 to 20 ratio. The soil matrix was contained in plastic pots with a volume of 1 quart and a surface area of 83.6 square centimeters (cm^2). When required to ensure good germination and healthy plants, a fungicide treatment and/or other chemical or physical treatment was applied. The plants were grown for 8-22 days in a greenhouse with an approximate 14 hr photoperiod which was maintained at about 29° C. during the day and 26° C. during the night. Nutrients (Peters Excel® 15-5-15 5-Ca 2-Mg and iron chelate) were applied in the irrigation solution as needed and water was added on a regular basis. Supplemental lighting was provided with overhead metal halide 1000-Watt lamps as necessary. The plants were employed for testing when they reached the first through fourth true leaf stage.
Treatments consisted of the acid or esters of 4-amino-3-chloro-5-fluoro-6-(4-chloro-2-fluoro-3-methoxy-phenyl)pyridine-2-carboxylic acid (Compound A), each formulated as an SC (suspension concentrate), and various herbicidal components alone and in combination. Forms of compound A were applied on an acid equivalent basis.
Other herbicidal components were applied on an active ingredient basis and included very long chain fatty acid (VLCFA) synthesis-inhibiting and fatty acid/lipid synthesis-inhibiting herbicides acetochlor (technical grade material), acetochlor+dichlormid formulated as Topnotch®, pretilachlor (technical grade material), butachlor formulated as Butachlor EC, fentrazamide formulated as Fentrazamide EC, thiobencarb formulated as Bolero® 8EC, cafenstrole formulated as Himeadow® WP or Lapost® Flowable, benfuresate formulated as Full Shot®, dimethenamid-P formulated as Outlook®, indanofan (technical grade material), flufenacet formulated as Define® DF, mefenacet (technical grade material), S-metolachlor formulated as Dual® II Magnum, pethoxamid formulated as Successor® 600, and pyroxasulfone (technical grade material).
Treatment requirements were calculated based upon the rates being tested, the concentration of active ingredient or acid equivalent in the formulation, and a 12 mL application volume at a rate of 187 L/ha.
For treatments comprised of formulated compounds, measured amounts of compounds were placed individually in 25 mL glass vials and diluted in a volume of 1.25% (v/v) Agri-Dex® crop oil concentrated to obtain 12× stock solutions. […] Application solutions were prepared by adding an appropriate amount of each stock solution (e.g., 1 mL) and diluted to the appropriate final concentrations with the addition of 10 mL of an aqueous mixture of 1.25% (v/v) crop oil concentrate so that the final spray solutions contained 1.25+/−0.05% (v/v) crop oil concentrate.
For treatments comprised of technical compounds, weighed amounts can be placed individually in 25 mL glass vials and dissolved in a volume of 97:3 v/v acetone/DMSO to obtain 12× stock solutions. […] Application solutions can be prepared by adding an appropriate amount of each stock solution (e.g., 1 mL) and diluted to the appropriate final concentrations with the addition of 10 mL of an aqueous mixture of 1.5% (v/v) crop oil concentrate so that the final spray solutions contain 1.25% (v/v) crop oil concentrate. When technical materials are used, the concentrated stock solutions can be added to the spray solutions so that the final acetone and DMSO concentrations of the application solutions are […], respectively. […]

ECHOR = test: Example II: in-water applied weed control, transplanted paddy rice, greenhouse; assay type: in vivo, Echinochloa oryzoides (Ard.) Fritsch (early watergrass)
Summary of the method: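 Transplanted rice and weeds at the first to fourth true leaf stage in flooded mud pots (pH ~7.6 soil), greenhouse ~29/26 °C, 14 h photoperiod. Compound A (acid equivalent) and VLCFA/lipid-synthesis herbicides (active ingredient) injected into the paddy water in 1.25% crop oil concentrate. Injury scored visually at ~3 weeks versus untreated, 0–100%.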

## CCN(CC)C(=O)n1cnc(S(=O)(=O)c2c(C)cc(C)cc2C)n1 [Cafenstrole, N,N-diethyl-3-[(2,4,6-trimethylphenyl)sulfonyl]-1H-1,2,4-triazole-1-carboxamide]
IPOHE; 26.25 gai/ha Himeadow WP
  Visual Weed Control Obs: 0%
IPOHE; 105 gai/ha Himeadow WP
  Visual Weed Control Obs: 30%
IPOHE; 26.25 gai/ha
  Visual Weed Control (%) - 21 DAA IPOHE Obs: 0%
IPOHE; 210 gai/ha, 2nd IPOHE sub-table
  Visual Weed Control (%) - 21 DAA IPOHE Obs: 10%
ECHOR; Echinochloa oryzoides, 504 h, 52.5 gai/ha (Himeadow WP), 21 DAA, read-out: Visual Weed Control ECHOR Obs
  pest or weed control at 52.5 g/ha: 10%
ECHOR; Echinochloa oryzoides, 504 h, 52.5 gai/ha (Lapost Flowable), 21 DAA, read-out: Visual Weed Control ECHOR Obs
  pest or weed control at 52.5 g/ha: 70%
ECHOR; Echinochloa oryzoides, 504 h, 105 gai/ha (Himeadow WP), 21 DAA, read-out: Visual Weed Control ECHOR Obs
  pest or weed control at 105 g/ha: 30%

## COc1c(Cl)ccc(-c2nc(C(=O)OCc3ccccc3)c(Cl)c(N)c2F)c1F [Compound A Benzyl Ester, benzyl ester of 4-amino-3-chloro-5-fluoro-6-(4-chloro-2-fluoro-3-methoxy-phenyl)pyridine-2-carboxylic acid]
IPOHE; 4.38 gae/ha
  Visual Weed Control (%) - 21 DAA IPOHE Obs: 0%
  Visual Weed Control Obs: 10%
IPOHE; 8.75 gae/ha
  Visual Weed Control (%) - 21 DAA IPOHE Obs: 10%
  Visual Weed Control Obs: 15%
IPOHE; 17.5 gae/ha
  Visual Weed Control (%) - 21 DAA IPOHE Obs: 30%
  Visual Weed Control Obs: 25%
IPOHE; 17.5 gae/ha, 2nd IPOHE sub-table
  Visual Weed Control (%) - 21 DAA IPOHE Obs: 10%
ECHOR; 4.38 gae/ha
  Visual Weed Control (%) - 20 DAA ECHOR Obs: 10%
ECHOR; 8.75 gae/ha
  Visual Weed Control (%) - 20 DAA ECHOR Obs: 20%
  Visual Weed Control (%) - 21 DAA ECHOR Obs: 15% and 25%
ECHOR; 17.5 gae/ha
  Visual Weed Control (%) - 20 DAA ECHOR Obs: 50%
ECHOR; Echinochloa oryzoides, 480 h, 4.38 gae/ha, 20 DAA, read-out: Visual Weed Control ECHOR Obs
  pest or weed control at 4.38 g/ha: 10%
ECHOR; Echinochloa oryzoides, 480 h, 8.75 gae/ha, 20 DAA, read-out: Visual Weed Control ECHOR Obs
  pest or weed control at 8.75 g/ha: 20%
ECHOR; Echinochloa oryzoides, 480 h, 17.5 gae/ha, 20 DAA, read-out: Visual Weed Control ECHOR Obs
  pest or weed control at 17.5 g/ha: 50%
ECHOR; Echinochloa oryzoides, 504 h, 8.75 gae/ha, 21 DAA, read-out: Visual Weed Control ECHOR Obs
  pest or weed control at 8.75 g/ha: 15%
ECHOR; Echinochloa oryzoides, 528 h, 8.75 gae/ha, 22 DAA, read-out: Visual Weed Control ECHOR Obs
  pest or weed control at 8.75 g/ha: 35%
ECHOR; Echinochloa oryzoides, 528 h, 17.5 gae/ha, 22 DAA, read-out: Visual Weed Control ECHOR Obs
  pest or weed control at 17.5 g/ha: 30%

## CCCOCCN(C(=O)CCl)c1c(CC)cccc1CC [Pretilachlor, 2-chloro-N-(2,6-diethylphenyl)-N-(2-propoxyethyl)acetamide]
ECHOR; 75 gai/ha
  Visual Weed Control (%) - 20 DAA ECHOR Obs: 0%
ECHOR; 150 gai/ha
  Visual Weed Control (%) - 20 DAA ECHOR Obs: 30%

## CCS(=O)(=O)Oc1ccc2c(c1)C(C)(C)CO2 [Benfuresate, 2,3-dihydro-3,3-dimethyl-5-benzofuranyl ethanesulfonate]
ECHOR; Echinochloa oryzoides, 528 h, 150 gai/ha (Full Slot), 22 DAA, read-out: Visual Weed Control ECHOR Obs
  pest or weed control at 150 g/ha: 0%

## COc1c(Cl)ccc(-c2nc(C(=O)O)c(Cl)c(N)c2F)c1F [Compound A Acid, 4-amino-3-chloro-6-(4-chloro-2-fluoro-3-methoxyphenyl)-5-fluoropyridine-2-carboxylic acid]
IPOHE; 4.38 gae/ha
  Visual Weed Control Obs: 0%
IPOHE; 8.75 gae/ha
  Visual Weed Control Obs: 20%
IPOHE; 17.5 gae/ha
  Visual Weed Control Obs: 40%
ECHOR; 8.75 gae/ha
  Visual Weed Control (%) - 20 DAA ECHOR Obs: 10%
ECHOR; 17.5 gae/ha
  Visual Weed Control (%) - 20 DAA ECHOR Obs: 25%
  Visual Weed Control (%) - 21 DAA ECHOR Obs: 25% and 20%
ECHOR; 35 gae/ha
  Visual Weed Control (%) - 20 DAA ECHOR Obs: 25%
  Visual Weed Control (%) - 21 DAA ECHOR Obs: 30% and 35%
ECHOR; Echinochloa oryzoides, 504 h, 35 gae/ha, 21 DAA, read-out: Visual Weed Control ECHOR Obs
  pest or weed control at 35 g/ha: 30%

— patent US20130310256A1, “HERBICIDAL COMPOSITIONS COMPRISING 4-AMINO-3-CHLORO-5-FLUORO-6-(4-CHLORO-2-FLUORO-3-METHOXYPHENYL) PYRIDINE-2-CARBOXYLIC ACID OR A DERIVATIVE THEREOF AND VLCFA AND LIPID SYNTHESIS INHIBITING HERBICIDES” (DOW AGROSCIENCES LLC, priority 2008, published 2013)
